We go through two compounds from patent US20090123376A1, “THERAPEUTIC AGENTS WITH DECREASED TOXICITY” (priority 2004, published 2009).

Non-standard residues stand in square brackets, D forms with d. Residues, ends and D or L forms follow the SMILES beside them. *: point of attachment. Dolaproine = CO[C@@H]([C@@H]1CCCN1)[C@@H](C)C(=O)O; Dil = CC[C@H](C)[C@H](NC)[C@@H](CC(=O)O)OC; X1 = C[C@@H](N*)[C@@H](O)c1ccccc1; NMeV = CN[C@H](C(=O)O)C(C)C

Series [1] is described as follows: Toxicity of IgG-MMAE, F(ab')2-MMAE conjugates and free MMAE in rats (Example 3). The class given is in vivo, Female Spraque-Dawley (SD) rats. Here is the method:
Female Spraque-Dawley (SD) rats weighing between 75-80 grams (Charles River Laboratories, Hollister, Calif.) were used in the following studies to compare the toxicity of free MMAE, Fab-MMAE and F(ab′)2-MMAE conjugates.
The body surface area was calculated as follows: [{(body weight in grams to 0.667 power)×11.8}/10000]. (Guidance for Industry and Reviewers. Estimating the Safety Starting Dose in Clinical Trials for Therapeutics in Adult Healthy Volunteers. U.S. Department of Health and Human Services Food and Drug Administration, Center for Drug Evaluation and Research (CDER), Center for Biologics Evaluation and research (CBER), December 2002).
General clinical observations were performed daily. Morbidity and mortality checks were performed twice daily (AM and PM). The body weights of the animals were measured pre-dose on Study Day 1 and daily thereafter. Whole blood was collected into EDTA containing tubes for hematology parameters (e.g., mean serum AST levels, ALT levels, GGT levels and billirubin levels) and differential cell counts (e.g., mean white blood cell counts and platelet counts). Whole blood was collected into serum separator tubes for clinical chemistry parameters. Blood samples were collected pre-dose on Study Day-4, on Study Day 3 and on Day 5 at necropsy. Whole blood was also collected into lithium heparin containing tubes at necropsy and the plasma was frozen at −70° C. for later analysis. The following tissues were collected at necropsy: liver, kidneys, heart, thymus, spleen, brain, sternum and sections of the GI tract, including stomach, large and small intestine. At necropsy, only spleen and thymus were weighed. All statistical analyses were done on Day 5 body weights using a One Way ANOVA, Tukey's test, (SigmaStat 2.03 Software).

Series [2] concerns MMTV-HER2 transgenic mammary tumors (Fo5). As to conditions: established MMTV-HER2 transgenic mammary tumors (Fo5).
Protocol: Log Cell Kill analyses based on tumor doubling times were conducted. The Log Cell Kill analysis uses a mathematical computation of tumor growth delay based on the time it takes for tumors to double in size after treatment begins compared to controls.
[3] abbreviates: 2105 μg MMAE/m2, day 3 (Herceptin-vc-MMAE days 3 and 5).
The mark [4] stands for this setting: 2105 μg MMAE/m2 single iv bolus.

`CC[C@H](C)[C@@H]([C@@H](CC(=O)N1CCC[C@H]1[C@H](OC)[C@@H](C)C(=O)N[C@H](C)[C@@H](O)c1ccccc1)OC)N(C)C(=O)[C@@H](NC(=O)[C@@H](NC)C(C)C)C(C)C` [free MMAE, monomethylauristatin] (H-[NMeV]V[Dil][Dolaproine]-X1): the “morphologic changes (histology)” value in series [1] (2105 μg MMAE/m2) was “most severe”. Also, in series [1] (setting [3]), the “liver associated serum enzymes / liver function tests” value is “highest elevations in liver associated serum enzymes ALT, AST and GGT”; the “platelet and white blood cell counts” value was “lowest platelet and white blood cell counts”. For the same compound, in series [1] (setting [4]), the “body weight lost by Day 3 compared with Day 1 weights” value came to 12 grams and the “weight loss, comparison between groups” value was “comparable weight loss”. The clinical observations entry in series [1] (2105 μg MMAE/m2 single iv bolus, Study Day 3) was “moribund”.
Turning to Herceptin®, in series [2], the “response of the Fo5 tumor line” value is “non-responsive”.
